Data from ChEMBL document CHEMBL1129019, “CCK-4 restricted analogues containing a 3-oxoindolizidine skeleton” (Bioorg Med Chem Lett, 1996).

How the values were obtained:
[1] = target: T1, Cholecystokinin receptor type A (Rattus norvegicus, UniProt P30551); assay: Binding of [3H]propionyl-CCK-8 to Cholecystokinin type A receptor from rat pancreas
T1 sequence (P30551 whole entry): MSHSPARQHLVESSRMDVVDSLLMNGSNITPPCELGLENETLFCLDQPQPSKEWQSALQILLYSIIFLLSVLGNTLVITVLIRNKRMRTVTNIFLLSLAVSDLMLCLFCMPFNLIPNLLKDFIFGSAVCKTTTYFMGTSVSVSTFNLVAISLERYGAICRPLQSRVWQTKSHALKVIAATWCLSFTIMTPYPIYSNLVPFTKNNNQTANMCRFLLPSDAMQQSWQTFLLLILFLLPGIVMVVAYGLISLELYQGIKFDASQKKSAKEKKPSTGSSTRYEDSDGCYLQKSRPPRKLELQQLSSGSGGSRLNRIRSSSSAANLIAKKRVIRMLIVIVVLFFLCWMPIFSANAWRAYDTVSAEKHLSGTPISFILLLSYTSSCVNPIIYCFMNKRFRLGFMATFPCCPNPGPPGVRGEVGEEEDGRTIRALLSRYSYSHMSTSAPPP

[2] = target: T2, Gastrin/cholecystokinin type B receptor (Rattus norvegicus, UniProt P30553); assay: Binding of [3H]propionyl-CCK-8 to Cholecystokinin type B receptor from rat cerebral cortex.; type: tissue-based
T2 sequence (P30553 whole entry): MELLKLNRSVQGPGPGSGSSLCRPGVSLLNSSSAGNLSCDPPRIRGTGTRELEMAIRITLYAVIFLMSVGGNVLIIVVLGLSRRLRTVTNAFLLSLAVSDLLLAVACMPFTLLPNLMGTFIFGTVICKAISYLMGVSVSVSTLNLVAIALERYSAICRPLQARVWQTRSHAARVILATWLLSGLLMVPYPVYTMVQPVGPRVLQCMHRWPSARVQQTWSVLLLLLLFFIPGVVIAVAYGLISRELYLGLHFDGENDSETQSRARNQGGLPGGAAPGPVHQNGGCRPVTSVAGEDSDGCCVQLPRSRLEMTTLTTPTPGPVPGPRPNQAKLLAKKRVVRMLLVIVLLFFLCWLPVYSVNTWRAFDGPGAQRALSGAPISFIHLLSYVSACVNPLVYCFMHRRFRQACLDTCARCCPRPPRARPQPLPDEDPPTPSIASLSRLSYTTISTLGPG

| SMILES | IC50 [1] [nM] | IC50 [2] [nM] |
| --- | --- | --- |
| COC(=O)[C@]1(Cc2ccccc2)C[C@H]2[C@H](NC(=O)[C@H](Cc3c[nH]c4ccccc34)NC(=O)OC(C)(C)C)CCCN2C1=O | > 10000 | > 10000 |
| COC(=O)[C@@]1(Cc2ccccc2)C[C@@H]2[C@@H](NC(=O)[C@@H](Cc3c[nH]c4ccccc34)NC(=O)OC(C)(C)C)CCCN2C1=O | > 10000 | > 10000 |
| CC(C)(C)OC(=O)N[C@@H](Cc1c[nH]c2ccccc12)C(=O)N[C@H]1CCCN2C(=O)[C@@](Cc3ccccc3)(C(N)=O)C[C@H]12 | 1020 | > 10000 |
| CC(C)(C)OC(=O)N[C@H](Cc1c[nH]c2ccccc12)C(=O)N[C@H]1CCCN2C(=O)[C@](Cc3ccccc3)(C(N)=O)C[C@H]12 | > 10000 | 820 |
| CC1(C)[C@H]2CC[C@@]1(C)[C@H](OC(=O)N[C@](C)(Cc1c[nH]c3ccccc13)C(=O)NC[C@H](NC(=O)CCC(=O)O)c1ccccc1)C2 | 1120 | 9 |
| CC(C)(C)OC(=O)N[C@@H](Cc1c[nH]c2ccccc12)C(=O)N[C@H]1CCCN2C(=O)[C@](Cc3ccccc3)(C(N)=O)C[C@H]12 | > 10000 | 3530 |

The next lines start with the values.

| IC50 [1] [nM] | IC50 [2] [nM] | SMILES |
| --- | --- | --- |
| > 10000 | 220 | COC(=O)[C@]1(Cc2ccccc2)C[C@@H]2[C@@H](NC(=O)[C@@H](Cc3c[nH]c4ccccc34)NC(=O)C34CC5CC(CC(C5)C3)C4)CCCN2C1=O |
| 980 | 2190 | COC(=O)[C@@]1(Cc2ccccc2)C[C@H]2[C@H](NC(=O)[C@@H](Cc3c[nH]c4ccccc34)NC(=O)C34CC5CC(CC(C5)C3)C4)CCCN2C1=O |
| > 10000 | > 10000 | COC(=O)[C@@]1(Cc2ccccc2)C[C@H]2[C@H](NC(=O)[C@@H](Cc3c[nH]c4ccccc34)NC(=O)OC(C)(C)C)CCCN2C1=O |
| 2350 | > 10000 | COC(=O)[C@@]1(Cc2ccccc2)C[C@@H]2[C@@H](NC(=O)[C@H](Cc3c[nH]c4ccccc34)NC(=O)OC(C)(C)C)CCCN2C1=O |
| > 10000 | 3720 | COC(=O)[C@]1(Cc2ccccc2)C[C@@H]2[C@@H](NC(=O)[C@@H](Cc3c[nH]c4ccccc34)NC(=O)OC(C)(C)C)CCCN2C1=O |
